Test results published in US10750743B2, “Pyridazinone herbicides” (E.I. DU PONT DE NEMOURS AND COMPANY, priority 2015, dated 2020).

Assays:
Type in all cases: in vivo
[1] = test system: ragweed (common ragweed, Ambrosia elatior); assay: Test A preemergence, directed soil spray, visual injury rating; conditions: 0 is no effect, 100 is complete control
Method in brief: (§1)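 Compounds in a surfactant-containing solvent were applied as a directed soil spray preemergence, or postemergence to plants 2-10 cm tall at the one- to two-leaf stage, in loam-sand blend. After about 10 d in the greenhouse, injury was rated visually against untreated controls on a 0-100 scale (100 = complete control).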

[2] = test system: barnyardgrass (Echinochloa crus-galli); assay: as above; conditions: 0 is no effect, 100 is complete control
Method in brief: as §1

[3] = test system: pigweed (Amaranthus retroflexus); assay: as above; conditions: 0 is no effect, 100 is complete control
Method in brief: as §1

kochia (Kochia scoparia) [4] = assay: as above; conditions: 0 is no effect, 100 is complete control
Method in brief: as §1

[5] = test system: ryegrass, It. (Italian ryegrass, Lolium multiflorum); assay: as above; conditions: 0 is no effect, 100 is complete control
Method in brief: as §1

[6] = test system: foxtail, giant (giant foxtail, Setaria faberii); assay: as above; conditions: 0 is no effect, 100 is complete control
Method in brief: as §1

[7] = test system: ragweed (common ragweed, Ambrosia elatior); assay: Test A postemergence application, visual injury rating; conditions: 0 to 100 scale, 0 no effect, 100 complete control
Method in brief: as §1

[8] = test system: barnyardgrass (Echinochloa crus-galli); assay: as above; conditions: 0 to 100 scale, 0 no effect, 100 complete control
Method in brief: as §1

[9] = test system: wheat (Triticum aestivum); assay: as above; conditions: 0 to 100 scale, 0 no effect, 100 complete control
Method in brief: as §1

[10] = test system: pigweed (Amaranthus retroflexus); assay: as above; conditions: 0 to 100 scale, 0 no effect, 100 complete control
Method in brief: as §1

kochia (Kochia scoparia) [11] = assay: as above; conditions: 0 to 100 scale, 0 no effect, 100 complete control
Method in brief: as §1

[12] = test system: galium (catchweed bedstraw, Galium aparine); assay: as above; conditions: 0 to 100 scale, 0 no effect, 100 complete control
Method in brief: as §1

[13] = test system: blackgrass (Alopecurus myosuroides); assay: as above; conditions: 0 to 100 scale, 0 no effect, 100 complete control
Method in brief: as §1

[14] = test system: ryegrass, It. (Italian ryegrass, Lolium multiflorum); assay: as above; conditions: 0 to 100 scale, 0 no effect, 100 complete control
Method in brief: as §1

[15] = test system: foxtail, giant (giant foxtail, Setaria faberii); assay: as above; conditions: 0 to 100 scale, 0 no effect, 100 complete control
Method in brief: as §1

corn (Zea mays) = assay: as above; conditions: 0 to 100 scale, 0 no effect, 100 complete control
Method in brief: as §1

[16] = test system: barnyardgrass (Echinochloa crus-galli); assay: Test B flooded paddy test, visual rating; conditions: Flood, 250 g ai/ha, applied to paddy water, rated after 13 to 15 d
Method in brief: (§2)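 Plants grown to the 2-leaf stage. At treatment, pots were flooded to 3 cm above the soil, compound was applied directly to the paddy water, and that depth was held throughout. After 13 to 15 d in the greenhouse, response was rated visually against controls on a 0 (no effect) to 100 (complete control) scale.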

[17] = test system: ducksalad (Heteranthera limosa); assay: Test B flooded paddy test, visual rating; conditions: Flood, 250 g ai/ha, applied to paddy water, rated after 13 to 15 d
Method in brief: as §2

[18] = test system: sedge, umbrella (small-flower umbrella sedge, Cyperus difformis); assay: Test B flooded paddy test, visual rating; conditions: Flood, 250 g ai/ha, applied to paddy water, rated after 13 to 15 d
Method in brief: as §2

rice (Oryza sativa) = assay: Test B flooded paddy test, visual rating; conditions: Flood, 250 g ai/ha, applied to paddy water, rated after 13 to 15 d
Method in brief: as §2

SMILES: CCc1sc2ncccc2c1-c1c(O)c(C)nn(C)c1=O [Compound 18]
- Plant response rating (0 to 100 scale), Ragweed ([1]; 125 g ai/ha): 0
- Plant response rating (0 to 100 scale), Ragweed ([1]; 500 g ai/ha): 0
- Plant response rating (0 to 100 scale), Barnyardgrass ([2]; 125 g ai/ha): 0
- Plant response rating (0 to 100 scale), Barnyardgrass ([2]; 500 g ai/ha): 0
- Plant response rating (0 to 100 scale), Pigweed ([3]; 125 g ai/ha): 0
- Plant response rating (0 to 100 scale), Pigweed ([3]; 500 g ai/ha): 10
- Plant response rating (0 to 100 scale), Kochia (kochia (Kochia scoparia) [4]; 125 g ai/ha): 0
- Plant response rating (0 to 100 scale), Kochia (kochia (Kochia scoparia) [4]; 500 g ai/ha): 0
- Plant response rating (0 to 100 scale), Ryegrass, It. ([5]; 125 g ai/ha): 0
- Plant response rating (0 to 100 scale), Ryegrass, It. ([5]; 500 g ai/ha): 0
- Plant response rating (0 to 100 scale), Foxtail, Giant ([6]; 125 g ai/ha): 0
- Plant response rating (0 to 100 scale), Foxtail, Giant ([6]; 500 g ai/ha): 0
- Ragweed plant response rating ([7]; 125 g ai/ha): 0
- Ragweed plant response rating ([7]; 500 g ai/ha): 0
- Barnyardgrass plant response rating ([8]; 125 g ai/ha): 0
- Barnyardgrass plant response rating ([8]; 500 g ai/ha): 0
- Wheat plant response rating ([9]; 125 g ai/ha): 0
- Wheat plant response rating ([9]; 500 g ai/ha): 0
- Pigweed plant response rating ([10]; 125 g ai/ha): 0
- Pigweed plant response rating ([10]; 500 g ai/ha): 30
- Kochia plant response rating (kochia (Kochia scoparia) [11]; 125 g ai/ha): 0
- Kochia plant response rating (kochia (Kochia scoparia) [11]; 500 g ai/ha): 0
- Galium plant response rating ([12]; 125 g ai/ha): 0
- Galium plant response rating ([12]; 500 g ai/ha): 20
- Blackgrass plant response rating ([13]; 125 g ai/ha): 0
- Blackgrass plant response rating ([13]; 500 g ai/ha): 0
- Ryegrass, It. plant response rating ([14]; 125 g ai/ha): 0
- Ryegrass, It. plant response rating ([14]; 500 g ai/ha): 0
- Foxtail, Giant plant response rating ([15]; 125 g ai/ha): 0
- Foxtail, Giant plant response rating ([15]; 500 g ai/ha): 0
- Corn plant response rating (corn (Zea mays); 125 g ai/ha): 0
- Corn plant response rating (corn (Zea mays); 500 g ai/ha): 0
- Barnyardgrass plant response rating (0 to 100 scale, 0 is no effect, 100 is complete control) [16]: 0
- Ducksalad plant response rating (0 to 100 scale, 0 is no effect, 100 is complete control) [17]: 0
- Sedge, Umbrella plant response rating (0 to 100 scale, 0 is no effect, 100 is complete control) [18]: 0
- Rice plant response rating (0 to 100 scale, 0 is no effect, 100 is complete control) (rice (Oryza sativa)): 0

SMILES: CC(=O)Oc1c(C)nn(C)c(=O)c1-c1ccc(Cl)c2oc(C)cc12 [Compound 54]
- Plant response rating (0 to 100 scale), Ragweed ([1]; 31 g ai/ha): 0
- Plant response rating (0 to 100 scale), Ragweed ([1]; 125 g ai/ha): 10
- Plant response rating (0 to 100 scale), Barnyardgrass ([2]; 31 g ai/ha): 0
- Plant response rating (0 to 100 scale), Barnyardgrass ([2]; 125 g ai/ha): 0
- Plant response rating (0 to 100 scale), Pigweed ([3]; 31 g ai/ha): 0
- Plant response rating (0 to 100 scale), Pigweed ([3]; 125 g ai/ha): 20
- Plant response rating (0 to 100 scale), Kochia (kochia (Kochia scoparia) [4]; 31 g ai/ha): 0
- Plant response rating (0 to 100 scale), Kochia (kochia (Kochia scoparia) [4]; 125 g ai/ha): 0
- Plant response rating (0 to 100 scale), Ryegrass, It. ([5]; 31 g ai/ha): 30
- Plant response rating (0 to 100 scale), Ryegrass, It. ([5]; 125 g ai/ha): 50
- Plant response rating (0 to 100 scale), Foxtail, Giant ([6]; 31 g ai/ha): 0
- Plant response rating (0 to 100 scale), Foxtail, Giant ([6]; 125 g ai/ha): 0
- Ragweed plant response rating ([7]; 31 g ai/ha): 0
- Ragweed plant response rating ([7]; 125 g ai/ha): 0
- Barnyardgrass plant response rating ([8]; 31 g ai/ha): 0
- Barnyardgrass plant response rating ([8]; 125 g ai/ha): 0
- Wheat plant response rating ([9]; 31 g ai/ha): 0
- Wheat plant response rating ([9]; 125 g ai/ha): 0
- Pigweed plant response rating ([10]; 31 g ai/ha): 30
- Pigweed plant response rating ([10]; 125 g ai/ha): 40
- Kochia plant response rating (kochia (Kochia scoparia) [11]; 31 g ai/ha): 0
- Kochia plant response rating (kochia (Kochia scoparia) [11]; 125 g ai/ha): 10
- Galium plant response rating ([12]; 31 g ai/ha): 50
- Galium plant response rating ([12]; 125 g ai/ha): 70
- Blackgrass plant response rating ([13]; 31 g ai/ha): 0
- Blackgrass plant response rating ([13]; 125 g ai/ha): 0
- Ryegrass, It. plant response rating ([14]; 31 g ai/ha): 20
- Ryegrass, It. plant response rating ([14]; 125 g ai/ha): 60
- Foxtail, Giant plant response rating ([15]; 31 g ai/ha): 0
- Foxtail, Giant plant response rating ([15]; 125 g ai/ha): 0
- Corn plant response rating (corn (Zea mays); 31 g ai/ha): 0
- Corn plant response rating (corn (Zea mays); 125 g ai/ha): 0
- Barnyardgrass plant response rating (0 to 100 scale, 0 is no effect, 100 is complete control) [16]: 0
- Ducksalad plant response rating (0 to 100 scale, 0 is no effect, 100 is complete control) [17]: 0
- Sedge, Umbrella plant response rating (0 to 100 scale, 0 is no effect, 100 is complete control) [18]: 70
- Rice plant response rating (0 to 100 scale, 0 is no effect, 100 is complete control) (rice (Oryza sativa)): 0

SMILES: COC(=O)Oc1c(C)nn(C)c(=O)c1-c1ccc(Cl)c2ccsc12 [Compound 50]
- Plant response rating (0 to 100 scale), Ragweed ([1]; 31 g ai/ha): 0
- Plant response rating (0 to 100 scale), Ragweed ([1]; 125 g ai/ha): 20
- Plant response rating (0 to 100 scale), Barnyardgrass ([2]; 31 g ai/ha): 0
- Plant response rating (0 to 100 scale), Barnyardgrass ([2]; 125 g ai/ha): 10
- Plant response rating (0 to 100 scale), Pigweed ([3]; 31 g ai/ha): 0
- Plant response rating (0 to 100 scale), Pigweed ([3]; 125 g ai/ha): 100
- Plant response rating (0 to 100 scale), Kochia (kochia (Kochia scoparia) [4]; 31 g ai/ha): 0
- Plant response rating (0 to 100 scale), Kochia (kochia (Kochia scoparia) [4]; 125 g ai/ha): 20
- Plant response rating (0 to 100 scale), Ryegrass, It. ([5]; 31 g ai/ha): 60
- Plant response rating (0 to 100 scale), Ryegrass, It. ([5]; 125 g ai/ha): 80
- Plant response rating (0 to 100 scale), Foxtail, Giant ([6]; 31 g ai/ha): 0
- Plant response rating (0 to 100 scale), Foxtail, Giant ([6]; 125 g ai/ha): 10
- Ragweed plant response rating ([7]; 31 g ai/ha): 10
- Ragweed plant response rating ([7]; 125 g ai/ha): 70
- Barnyardgrass plant response rating ([8]; 31 g ai/ha): 0
- Barnyardgrass plant response rating ([8]; 125 g ai/ha): 10
- Wheat plant response rating ([9]; 31 g ai/ha): 0
- Wheat plant response rating ([9]; 125 g ai/ha): 0
- Pigweed plant response rating ([10]; 31 g ai/ha): 60
- Pigweed plant response rating ([10]; 125 g ai/ha): 70
- Kochia plant response rating (kochia (Kochia scoparia) [11]; 31 g ai/ha): 40
- Kochia plant response rating (kochia (Kochia scoparia) [11]; 125 g ai/ha): 90
- Galium plant response rating ([12]; 31 g ai/ha): 100
- Galium plant response rating ([12]; 125 g ai/ha): 100
- Blackgrass plant response rating ([13]; 31 g ai/ha): 0
- Blackgrass plant response rating ([13]; 125 g ai/ha): 10
- Ryegrass, It. plant response rating ([14]; 31 g ai/ha): 60
- Ryegrass, It. plant response rating ([14]; 125 g ai/ha): 90
- Foxtail, Giant plant response rating ([15]; 31 g ai/ha): 0
- Foxtail, Giant plant response rating ([15]; 125 g ai/ha): 0
- Corn plant response rating (corn (Zea mays); 31 g ai/ha): 0
- Corn plant response rating (corn (Zea mays); 125 g ai/ha): 0
- Barnyardgrass plant response rating (0 to 100 scale, 0 is no effect, 100 is complete control) [16]: 0
- Ducksalad plant response rating (0 to 100 scale, 0 is no effect, 100 is complete control) [17]: 0
- Sedge, Umbrella plant response rating (0 to 100 scale, 0 is no effect, 100 is complete control) [18]: 0
- Rice plant response rating (0 to 100 scale, 0 is no effect, 100 is complete control) (rice (Oryza sativa)): 0
